pKi: −log10 of the molar value. Structures can show the parent of a compound that is named as a salt. Where two headings read alike, the source gives them in different places.
Columns and labels:
[1] = target: purified human Factor XIa (Homo sapiens (Human), UniProt P03951); experiment: biochemical; format: biochemical
[2] = target: purified human plasma kallikrein (Homo sapiens (Human), UniProt P03952); experiment: biochemical; format: biochemical
purified human plasma kallikrein, sequence (P03952 whole entry, looked up): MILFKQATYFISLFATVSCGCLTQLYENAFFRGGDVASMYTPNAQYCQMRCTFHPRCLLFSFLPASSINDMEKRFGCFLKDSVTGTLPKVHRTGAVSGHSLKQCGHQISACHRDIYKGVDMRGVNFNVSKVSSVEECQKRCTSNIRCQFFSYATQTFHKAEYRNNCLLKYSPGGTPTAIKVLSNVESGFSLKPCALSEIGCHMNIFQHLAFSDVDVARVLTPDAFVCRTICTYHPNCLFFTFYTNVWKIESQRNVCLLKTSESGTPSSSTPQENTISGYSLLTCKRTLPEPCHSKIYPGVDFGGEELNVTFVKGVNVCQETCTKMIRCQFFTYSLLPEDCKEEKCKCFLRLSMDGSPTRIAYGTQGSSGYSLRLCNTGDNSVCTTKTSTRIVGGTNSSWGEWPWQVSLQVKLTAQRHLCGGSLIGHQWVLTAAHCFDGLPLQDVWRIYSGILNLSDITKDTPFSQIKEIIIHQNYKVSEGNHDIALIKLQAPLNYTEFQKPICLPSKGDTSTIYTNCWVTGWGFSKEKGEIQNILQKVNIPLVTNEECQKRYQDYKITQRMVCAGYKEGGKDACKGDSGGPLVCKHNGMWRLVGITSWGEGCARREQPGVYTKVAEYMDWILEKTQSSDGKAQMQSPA
purified human plasma kallikrein, sequence (P03952 whole entry partner, looked up): as the sequence (P03952 whole entry, looked up) above

purified human Factor XIa, sequence (P03951 whole entry, looked up): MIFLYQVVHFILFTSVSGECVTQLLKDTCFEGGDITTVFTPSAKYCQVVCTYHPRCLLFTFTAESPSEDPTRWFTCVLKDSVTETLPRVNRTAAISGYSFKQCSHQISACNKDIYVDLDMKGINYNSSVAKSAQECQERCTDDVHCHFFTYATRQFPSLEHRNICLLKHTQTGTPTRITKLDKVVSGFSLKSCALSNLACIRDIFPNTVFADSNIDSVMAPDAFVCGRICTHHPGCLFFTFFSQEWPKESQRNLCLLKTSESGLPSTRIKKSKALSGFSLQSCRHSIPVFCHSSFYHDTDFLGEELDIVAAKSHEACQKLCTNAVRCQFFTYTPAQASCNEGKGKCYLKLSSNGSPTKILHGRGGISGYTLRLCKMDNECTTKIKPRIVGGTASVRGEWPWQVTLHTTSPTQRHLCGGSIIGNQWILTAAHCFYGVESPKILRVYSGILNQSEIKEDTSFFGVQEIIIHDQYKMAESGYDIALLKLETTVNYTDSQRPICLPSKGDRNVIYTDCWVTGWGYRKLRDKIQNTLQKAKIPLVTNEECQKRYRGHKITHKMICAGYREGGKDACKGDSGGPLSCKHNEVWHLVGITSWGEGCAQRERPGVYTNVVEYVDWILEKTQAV
purified human Factor XIa, sequence (P03951 whole entry partner, looked up): as the sequence (P03951 whole entry, looked up) above

## COC(=O)c1ccc2c(c1)-c1cccc(c1)[C@H](N1CCC(c3c(F)ccc(Cl)c3F)=CC1=O)CCC[C@@H](C)C(=O)N2 [Example 165, Methyl (10R,14R)-14-[4-(3-chloro-2,6-difluorophenyl)-6-oxo-1,2,3,6-tetrahydropyridin-1-yl]-10-methyl-9-oxo-8-azatricyclo[13.3.1.0^2,7]nonadeca-1(19),2,4,6,15,17-hexaene-4-carboxylate]
[1]; read-out: Factor XIa Ki
  pKi: < 6.40
[2]; read-out: Plasma Kallikrein Ki
  pKi: 5.02

## C[C@@H]1CCC[C@H](N2CCC(c3c(F)ccc(Cl)c3F)=CC2=O)c2cccc(c2)-c2cc(C(=O)O)ccc2NC1=O [Example 166, (10R,14S)-14-[4-(3-chloro-2,6-difluorophenyl)-6-oxo-1,2,3,6-tetrahydropyridin-1-yl]-10-methyl-9-oxo-8-azatricyclo[13.3.1.0^2,7]nonadeca-1(19),2,4,6,15,17-hexaene-4-carboxylic acid]
[1]; read-out: Factor XIa Ki
  pKi: 8.20
[2]; read-out: Plasma Kallikrein Ki
  pKi: 6.95

## C[C@@H]1CCC[C@H](N2CCC(c3c(Br)ccc(Cl)c3F)=CC2=O)c2cccc(c2)-c2cc(C(=O)O)ccc2NC1=O [Example 167, (10R,14S)-14-[4-(6-bromo-3-chloro-2-fluorophenyl)-6-oxo-1,2,3,6-tetrahydropyridin-1-yl]-10-methyl-9-oxo-8-azatricyclo[13.3.1.0^2,7]nonadeca-1(19),2,4,6,15,17-hexaene-4-carboxylic acid]
[1]; read-out: Factor XIa Ki
  pKi: 9.09
[2]; read-out: Plasma Kallikrein Ki
  pKi: 7.70

## COC(=O)c1ccc2c(c1)-c1cccc(c1)[C@@H](N1CCC(c3c(C#N)ccc(C#N)c3F)=CC1=O)CCC[C@@H](C)C(=O)N2 [Example 168, Methyl (10R,14S)-14-[4-(3,6-dicyano-2-fluorophenyl)-6-oxo-1,2,3,6-tetrahydropyridin-1-yl]-10-methyl-9-oxo-8-azatricyclo[13.3.1.0^2,7]nonadeca-1(18),2,4,6,15(19),16-hexaene-4-carboxylate]
[1]; read-out: Factor XIa Ki
  pKi: < 6.38
[2]; read-out: Plasma Kallikrein Ki
  pKi: 5.72

## COC(=O)c1ccc2c(c1)-c1cccc(c1)[C@@H](N1CCC(c3cccc(Cl)c3F)=CC1=O)CCC[C@@H](C)C(=O)N2 [Example 169, Methyl (10R,14S)-14-[4-(3-chloro-2-fluorophenyl)-6-oxo-1,2,3,6-tetrahydropyridin-1-yl]-10-methyl-9-oxo-8-azatricyclo[13.3.1.0^2,7]nonadeca-1(18),2,4,6,15(19),16-hexaene-4-carboxylate]
[1]; read-out: Factor XIa Ki
  pKi: < 6.38
[2]; read-out: Plasma Kallikrein Ki
  pKi: 6.11

## COC(=O)c1ccc2c(c1)-c1cccc(c1)[C@@H](N1CCC(c3c(C#N)ccc(Cl)c3F)=CC1=O)CCC[C@@H](C)C(=O)N2 [Example 170, Methyl (10R,14S)-14-[4-(3-chloro-6-cyano-2-fluorophenyl)-6-oxo-1,2,3,6-tetrahydropyridin-1-yl]-10-methyl-9-oxo-8-azatricyclo[13.3.1.0^2,7]nonadeca-1(18),2,4,6,15(19),16-hexaene-4-carboxylate]
[1]; read-out: Factor XIa Ki
  pKi: 7.33
[2]; read-out: Plasma Kallikrein Ki
  pKi: 8.11

## COC(=O)Nc1ccc2c(c1)NC(=O)[C@H](C)CCC[C@H](N1CCC(c3c(C(C)=O)ccc(Cl)c3F)=CC1=O)c1cccc-2c1 [Example 171, Methyl N-[(10R,14S)-14-[4-(6-acetyl-3-chloro-2-fluorophenyl)-6-oxo-1,2,3,6-tetrahydropyridin-1-yl]-10-methyl-9-oxo-8-azatricyclo[13.3.1.0^2,7]nonadeca-1(18),2,4,6,15(19),16-hexaen-5-yl]carbamate]
[1]; read-out: Factor XIa Ki
  pKi: 9.77
[2]; read-out: Plasma Kallikrein Ki
  pKi: 8.05

## COC(=O)c1ccc2c(c1)-c1cccc(c1)[C@H](N1CCC(c3c(Br)ccc(Cl)c3F)=CC1=O)CCC[C@@H](C)C(=O)N2 [Example 175, Methyl (10R,14R)-14-[4-(6-bromo-3-chloro-2-fluorophenyl)-6-oxo-1,2,3,6-tetrahydropyridin-1-yl]-10-methyl-9-oxo-8-azatricyclo[13.3.1.0^2,7]nonadeca-1(19),2,4,6,15,17-hexaene-4-carboxylate]
[1]; read-out: Factor XIa Ki
  pKi: < 6.20
[2]; read-out: Plasma Kallikrein Ki
  pKi: 5.42

## COC(=O)Nc1ccc2c(c1)NC(=O)[C@H](C)C(F)CC[C@H](N1CCC(c3c(F)ccc(Cl)c3F)=CC1=O)c1cc-2ccn1 (stereo partly drawn) [Example 180, Methyl N-[(10S,14S)-14-[4-(3-chloro-2,6-difluorophenyl)-6-oxo-1,2,3,6-tetrahydropyridin-1-yl]-11-fluoro-10-methyl-9-oxo-8,16-diazatricyclo[13.3.1.0^2,7]nonadeca-1(19),2(7),3,5,15,17-hexaen-5-yl]carbamate]
[1]; read-out: Factor XIa Ki
  pKi: 9.74
[2]; read-out: Plasma Kallikrein Ki
  pKi: 8.62

## COC(=O)Nc1ccc2c(c1)NC(=O)[C@H](C)CCC[C@H](N1CCC(c3c(-c4c[nH]nn4)ccc(Cl)c3F)=CC1=O)c1cc-2ccn1 [Example 182, Methyl N-[(10R,14S)-14-{4-[3-chloro-2-fluoro-6-(1H-1,2,3-triazol-4-yl)phenyl]-6-oxo-1,2,3,6-tetrahydropyridin-1-yl}-10-methyl-9-oxo-8,16-diazatricyclo[13.3.1.0^2,7]nonadeca-1(19),2(7),3,5,15,17-hexaen-5-yl]carbamate]
[1]; read-out: Factor XIa Ki
  pKi: 9.96
[2]; read-out: Plasma Kallikrein Ki
  pKi: 7.84

## CC(=O)Nc1ccc(Cl)c(F)c1C1=CC(=O)N([C@H]2CCC[C@@H](C)C(=O)Nc3ccccc3-c3ccnc2c3)CC1 [Example 183, N-(4-chloro-3-fluoro-2-{1-[(10R,14S)-10-methyl-9-oxo-8,16-diazatricyclo[13.3.1.0^2,7]nonadeca-1(19),2(7),3,5,15,17-hexaen-14-yl]-6-oxo-1,2,3,6-tetrahydropyridin-4-yl}phenyl)acetamide]
[1]; read-out: Factor XIa Ki
  pKi: 7.12
[2]; read-out: Plasma Kallikrein Ki
  pKi: 6.53

## C[C@@H]1CCC[C@H](N2CCC(c3c(-n4cnnn4)ccc(Cl)c3F)=CC2=O)c2cc(ccn2)-c2cc(F)ccc2NC1=O [Example 184, (10R,14S)-14-{4-[3-chloro-2-fluoro-6-(1H-1,2,3,4-tetrazol-1-yl)phenyl]-6-oxo-1,2,3,6-tetrahydropyridin-1-yl}-4-fluoro-10-methyl-8,16-diazatricyclo[13.3.1.0^2,7]nonadeca-1(19),2(7),3,5,15,17-hexaen-9-one]
[1]; read-out: Factor XIa Ki
  pKi: > 10.30
[2]; read-out: Plasma Kallikrein Ki
  pKi: 8.60

## C[C@@H]1CCC[C@H](n2ccc(-c3c(F)ccc(Cl)c3F)cc2=O)c2cc(ccn2)-c2ccncc2NC1=O [Example 185, (10R,14S)-14-[4-(3-chloro-2,6-difluorophenyl)-2-oxo-1,2-dihydropyridin-1-yl]-10-methyl-5,8,16-triazatricyclo[13.3.1.0^2,7]nonadeca-1(19),2(7),3,5,15,17-hexaen-9-one]
[1]
  pKi: 7.64
[2]; Plasma Kallikrein Ki
  pKi: 7.32

## COC(=O)c1ccc2c(c1)-c1ccnc(c1)[C@@H](N1CCC(c3c(C(F)(F)F)ccc(Cl)c3F)=CC1=O)CCC[C@@H](C)C(=O)N2 [Example 186, Methyl (10R,14S)-14-{4-[3-chloro-2-fluoro-6-(trifluoromethyl)phenyl]-6-oxo-1,2,3,6-tetrahydropyridin-1-yl}-10-methyl-9-oxo-8,16-diazatricyclo[13.3.1.0^2,7]nonadeca-1(19),2(7),3,5,15,17-hexaene-4-carboxylate]
[1]; read-out: Factor XIa Ki
  pKi: 7.24
[2]; read-out: Plasma Kallikrein Ki
  pKi: 7.22

## C[C@@H]1CCC[C@H](N2CCC(c3c(C(F)(F)F)ccc(Cl)c3F)=CC2=O)c2cc(ccn2)-c2cc(C(=O)O)ccc2NC1=O [Example 187, (10R,14S)-14-{4-[3-chloro-2-fluoro-6-(trifluoromethyl)phenyl]-6-oxo-1,2,3,6-tetrahydropyridin-1-yl}-10-methyl-9-oxo-8,16-diazatricyclo[13.3.1.0^2,7]nonadeca-1(19),2(7),3,5,15,17-hexaene-4-carboxylic acid]
[1]; read-out: Factor XIa Ki
  pKi: 9.36
[2]; read-out: Plasma Kallikrein Ki
  pKi: 7.76

## C[C@@H]1CCC[C@H](N2CCC(c3cc(Cl)ccc3-n3ccnn3)=CC2=O)c2cc(ccn2)-c2cc(F)ccc2NC1=O [Example 188, (10R,14S)-14-{4-[5-chloro-2-(1H-1,2,3-triazol-1-yl)phenyl]-6-oxo-1,2,3,6-tetrahydropyridin-1-yl}-4-fluoro-10-methyl-8,16-diazatricyclo[13.3.1.0^2,7]nonadeca-1(19),2(7),3,5,15,17-hexaen-9-one]
[1]; read-out: Factor XIa Ki
  pKi: 8.80
[2]; read-out: Plasma Kallikrein Ki
  pKi: 7.64

## COC(=O)Nc1ccc2c(c1)NC(=O)[C@H](C)CCC[C@H](N1CCC(c3c(F)ccc(Br)c3F)=CC1=O)c1cc-2ccn1 [Example 190, Methyl N-[(10R,14S)-14-[4-(3-bromo-2,6-difluorophenyl)-6-oxo-1,2,3,6-tetrahydropyridin-1-yl]-10-methyl-9-oxo-8,16-diazatricyclo[13.3.1.0^2,7]nonadeca-1(19),2,4,6,15,17-hexaen-5-yl]carbamate]
[1]; read-out: Factor XIa Ki
  pKi: 9.57
[2]; read-out: Plasma Kallikrein Ki
  pKi: 8.95

## COC(=O)Nc1ccc2c(c1)NC(=O)[C@H](C)CCC[C@H](N1CCC(c3c(C(C)=O)ccc(Cl)c3F)=CC1=O)c1cc(F)cc-2c1 [Example 191, Methyl N-[(10R,14S)-14-[4-(6-acetyl-3-chloro-2-fluorophenyl)-6-oxo-1,2,3,6-tetrahydropyridin-1-yl]-17-fluoro-10-methyl-9-oxo-8-azatricyclo[13.3.1.0^2,7]nonadeca-1(19),2,4,6,15,17-hexaen-5-yl]carbamate]
[1]; read-out: Factor XIa Ki
  pKi: 9.64
[2]; read-out: Plasma Kallikrein Ki
  pKi: 7.72

## C[C@@H]1CCC[C@H](N2CCC(c3c(F)ccc(Cl)c3F)=CC2=O)c2cc(ccn2)-c2cc(Br)c(N)cc2NC1=O [Example 193, (10R,14S)-5-amino-4-bromo-14-[4-(3-chloro-2,6-difluorophenyl)-6-oxo-1,2,3,6-tetrahydropyridin-1-yl]-10-methyl-8,16-diazatricyclo[13.3.1.0^2,7]nonadeca-1(19),2(7),3,5,15,17-hexaen-9-one, 2 TFA salt]
[1]; read-out: Factor XIa Ki
  pKi: 8.99
[2]; read-out: Plasma Kallikrein Ki
  pKi: 8.41

## C[C@@H]1CCC[C@H](N2CCC(c3c(F)ccc(Cl)c3F)=CC2=O)c2cc(ccn2)-c2ccc(Nc3cccnc3)cc2NC1=O [Example 195, (10R,14S)-14-[4-(3-chloro-2,6-difluorophenyl)-6-oxo-1,2,3,6-tetrahydropyridin-1-yl]-10-methyl-5-[(pyridin-3-yl)amino]-8,16-diazatricyclo[13.3.1.0^2,7]nonadeca-1(19),2(7),3,5,15,17-hexaen-9-one, 3 TFA salt]
[1]; read-out: Factor XIa Ki
  pKi: 9.33
[2]; read-out: Plasma Kallikrein Ki
  pKi: 8.53
